The text below walks through data of a melting point compilation (Tetko et al.).

On to `CCCCCCCCCCCCCCCCCCCCCCCCCCCCCC[Si](Cl)(Cl)Cl`, for which the melting point lay in the range of 60 to 80 °C.
The value for `O=C(N[C@H]1CC=CC[C@H]1C(=O)O)OCc1ccccc1` (relative stereo) was 118 to 124 °C.
The value for `COC(=O)c1cc([N+](=O)[O-])ccc1SC` was 130 to 132 °C; that for `Cc1ccc(C(c2ccc(C)o2)c2cc([N+](=O)[O-])cc(Br)c2O)o1` was 153 °C.
The molecule `COc1ccc2[nH]cc(CC(N)C(=O)O)c2c1` (racemic) showed a melting point of 258 to 261 °C.
To `O=C1c2ccccc2C(=C(c2ccccc2)c2ccccc2)c2ccccc21` belongs 203 to 207 °C; to `NC(CCCCCC(=O)O)C(=O)O` (racemic), 223 to 225 °C.
To `CCCCC(=O)OC1(C(=O)CO)CCC2C3CCC4=CC(=O)C=CC4(C)C3C(O)CC21C` (stereo not given) belongs 212 °C.
To `O=c1c2ccccc2c(=O)n2n1C1C=CC2C1` belongs 231 °C.
`CSC(SC)=C(C#N)S(=O)(=O)C(C)C` returned a melting point of 88 to 91 °C.
The value for `NC(Cc1ccccc1)=NO` was 66 to 67 °C.
To `CCC(C(N)=O)c1ccccc1` (stereo not given) belongs 86 °C; to `NC(C(=O)O)c1ccccc1` (stereo not given), 302 °C.
To `Cc1c(C(=O)c2c[nH]n(C)c2=O)ccc(S(C)(=O)=O)c1C1=NOCC1` belongs 222 °C.
Molecule `OCc1ccc(Br)cc1F` came in with a melting point of 32 °C.
Consider `N#CC1CCCCC1`, for which the melting point was 11 °C.
To `O=C(c1ccc2c3c(cccc13)CC2)C(O)c1ccccc1` (stereo not given) belongs 138 °C; to `Fc1cc(I)ccn1`, 58 °C.
The molecule `NC(=O)C(F)(F)C(F)F` registered a melting point of 57 to 59 °C.
To `CCCCCCCCCCCCCCCC(C)O` (stereo not given) belongs 54 °C; to `CC12CCC(O)CC1CCC1C3CCC(O)(C#Cc4ccccc4)C3CCC12` (stereo not given), 118 to 125 °C; to `CSC#N`, -5 °C.
To `O=C(O)C(Cl)(Cl)CCl` belongs 65.5 °C; to `CN1C(=O)CSC1=S`, 72 to 73 °C; to `C[Si](C)(C)C#Cc1ccc(C#C[Si](C)(C)C)cc1`, 120 °C.
The value for `Cc1ccc(S(=O)(=O)OC2CCC3(C)C(CCC4C5CCC(=O)C5(C)CCC43)C2)cc1` (stereo not given) was 164 to 166 °C; that for `Cc1ncc(CO)c(C(=O)O)c1O` was 248 °C.
Consider `CC(=O)OCC(COC(C)=O)OC(C)=O`, for which the melting point was determined as 78 °C.
`O=C1c2ccccc2C(=O)c2c1cc1ccccc1c2O` registered a melting point of 320 to 322 °C.
The value for `CCCCCC=CCC=CCCCCCCCC(=O)O` was -5 °C.
`Fc1cccc2cc[nH]c12`: the melting point was determined as 62 °C.
The value for `CCC(=O)c1cc(F)cc(F)c1` was 26 °C; that for `Cc1ccccc1NN=C1C(=O)OC(C)(C)OC1=O` was 106 °C; that for `CCCC(O)C(CC)CO` (stereo not given) was -40 °C.
To `ClCc1cc2cc(Br)ccc2o1` belongs 63 to 64 °C.
The value for `CC(C)CCNCCC(C)C` was -44 °C.
Take `CN(C)C(=O)COC(=O)c1ccccc1`: the melting point was 81.5 °C.
The value for `FC(F)(F)c1nn(CN2CCCCC2)c(=S)n1N=Cc1ccc2c(c1)OCO2` was 122 °C; that for `O=C(Oc1c(F)c(F)c(F)c(F)c1F)c1cc(C(F)(F)F)ccc1N1CCOCC1` was 91 to 93 °C; that for `CC1=NN(c2ccccc2)C(=O)C1C1C(=O)N(c2ccccc2)N=C1C` (stereo not given) was 355 °C.
With `CNC(=O)Oc1cccc(C(C)C)c1`, the melting point was 73 °C.
The value for `COc1cc2c(cc1C)C(Cl)C2` (stereo not given) was 41 °C.
To `CCCCCCC(O)C1C2=C(CC(C(O)C3CC=CC(=O)O3)CC3=C(C(=O)OC3=O)C1O)C(O)OC2=O` (stereo not given) belongs 214 °C; to `CCSC(C)C`, -122 °C.
To `CC(=O)Nc1ccc(-c2ccc(/N=N/c3ccccc3)cc2)cc1` belongs 236 to 237 °C; to `CC(=O)c1ccc[nH]1`, 90 °C; to `CCOC(=O)c1nn(-c2ccc(C)cc2)c(C)c1C(=O)c1noc(-c2ccc(Br)cc2)c1S(=O)(=O)c1ccccc1`, 170 °C.
Regarding `CC(C)(C(=O)O)n1nc2ccccc2n1`, the melting point is 152 °C.
`C1=C(c2ccccc2)CCCC1` showed a melting point of -11 °C.
To `Cc1cc(N=C2c3ccccc3CN2c2cc(C)on2)no1` belongs 191 °C.
The value for `Oc1ccc(Nc2ccc(O)cc2)cc1` was 174 °C; that for `CC(C)(C)NCC(O)COc1ccccc1C#N` (stereo not given) was 164 °C; that for `Cc1nc(NC(=O)NS(=O)(=O)c2cccs2)nc(Cl)c1C` was 201 to 203 °C.
To `O=CC(Br)=Cc1ccccc1` belongs 70 °C; to `CNC(=O)ON=C(C)SC`, 78 °C.
`Fc1ccc(F)cc1` had a melting point of -13 °C.
To `Nc1cc(F)c(C(F)(F)F)c(F)c1` belongs 66 °C; to `NS(=O)(=O)c1cc2c(cc1Cl)N=C(CSCc1ccccc1)NS2(=O)=O`, 232 °C.
To `Cc1cc(C)cc(S(=O)(=O)Cl)c1` belongs 93 °C.
The value for `Cn1c(/C(C#N)=C/c2ccc(F)cc2)nc2ccccc21` was 133 °C; that for `O=C(O)C1(c2ccc(Cl)cc2)CCC1` was 80 to 90 °C; that for `CCSC(=O)Cl` was -60 °C.
`CC(C)c1cc(C(C)C)c(S(N)(=O)=O)c(C(C)C)c1` yielded a melting point of 115 °C.
The value for `CCSc1nnc(NC(=O)C(F)(F)C(F)(F)C(F)(F)C(F)(F)C(F)(F)C(F)(F)C(F)(F)C(F)(F)F)s1` was 131 °C; that for `COc1cc(C=O)cc(OC)c1OC` was 75 °C.
The value for `c1ccc(OCCOCCOc2ccccc2)cc1` was 66 °C; that for `N#Cc1ccc(C2CCCc3cncn32)cc1` (stereo not given) was 117 °C; that for `C=CC(C)(C)O` was -28 °C.
Take `CC(=CNNc1nc(C)cc(C)n1)c1cccnc1`: the melting point lay within 147 to 150 °C.
The value for `O=c1c(I)cn(CC(O)CO)cc1I` (stereo not given) was 161 °C; that for `O=C(O)c1ccc(C(=O)O)nc1` was 254 °C.
To `CS(=O)(=O)c1ccc(Br)cc1` belongs 102 to 105 °C; to `O=C(O)COc1ccc(OC(F)(F)F)cc1`, 84 to 86 °C; to `N#CC1(C(=O)c2ccccc2)C(c2ccccc2)NC(=O)NC1c1ccccc1` (stereo not given), 215 to 216 °C.
For `Cc1cc(O)cc2c1C(=O)CC(C)(C)O2`, the melting point lay within 189 to 191 °C.
`COC(=O)c1nccnc1N` displayed a melting point of 171 °C.
To `Cc1nccn1-c1ccc(N)cc1` belongs 112 to 113 °C.
The value for `O=S(=O)(Nc1c(F)c(F)cc(F)c1F)C(F)(F)F` was 95 °C.
The value for `CC=C1CCC2C3CC=C4CC(OC(C)=O)CCC4(C)C3CCC12C` (stereo not given) was 137 °C.
`CC(C)OC(=O)C(O)(c1ccc(Cl)cc1)c1ccc(Cl)cc1` had a melting point of 73 °C.
For `CC(=O)C=Cc1ccc(C=CC(C)=O)cc1`, the melting point stood at 163 °C.
The molecule `O=[N+]([O-])c1ccc(/C=C\c2ccccc2[N+](=O)[O-])cc1` showed a melting point of 138 to 139 °C.
To `O=C1[C@H]2CC[C@@H]1[C@H]1C=C[C@@H]2O1` belongs 97 °C.
Turning to `COc1ccc(C=O)cc1[N+](=O)[O-]`, the melting point is 99 °C.
`O=C(O)c1ccno1` showed a melting point of 143 °C.
To `O=C(C=Cc1ccccc1)OCC=Cc1ccccc1` belongs 44 °C; to `CCOc1ccccc1N`, -4 °C.
To `CC(=O)OC1CC2C3CC=C4CC(O)CCC4(C)C3CCC2(C)C1C(C)C1CCC(C)CN1` (stereo not given) belongs 210 °C; to `N#CC(c1ccc(Cl)cc1)c1c(Cl)cc(-n2ncc(=O)[nH]c2=O)cc1Cl` (stereo not given), 295 °C; to `CC1(C)N=C(c2ccccc2)C=[N+]1[O-]`, 108 to 111 °C.
The molecule `Cc1cc2c(ccc3nonc32)nn1` returned a melting point of 167 to 169 °C.
The value for `COc1cc(-c2n[nH]c(=S)n2/N=C/c2cc(Br)ccc2O)cc(OC)c1OC` was 230 to 231 °C; that for `COc1ccc(/C=C(\C(N)=O)c2nc3ccccc3s2)cc1` was 168 °C; that for `Nc1ccc(C(F)(F)F)c(F)c1` was 56 °C.
To `CC12CCCC1C1CCC3CCCCC3(C)C1CC2` (stereo not given) belongs 50.2 °C; to `NS(=O)(=O)c1ccc(F)c2nonc12`, 144 to 146 °C; to `O=C(C=Cc1cccc([N+](=O)[O-])c1)c1ccc(F)cc1`, 166 to 167 °C.
To `O=C(c1ccccc1)C1CC1` belongs 7 to 9 °C; to `Nc1ccc(C(=O)O)cc1O`, 211 to 215 °C; to `N#CC(=O)c1ccccc1`, 32.5 °C.
`O=c1oc2c(o1)=C(c1ccccc1)S(=O)(=O)C=2c1ccccc1` had a melting point of 227 °C.
Molecule `CCOC(=O)CC(=O)c1cc(F)c(Cl)nc1Cl` registered a melting point of 68 to 72 °C.
To `CC12CCC3C(=CCc4cc(O)ccc43)C1CCC2O` (stereo not given) belongs 174 °C; to `CCS(=O)(=O)Oc1ccc2c(c1)C(C)(C)CO2`, 30 °C; to `FC(F)(Cl)C(Cl)(Cl)Cl`, 40.6 °C.
To `Cc1c(N)cccc1N` belongs 106 °C; to `N=C1NC(=O)C(=NNc2ccc(Br)cc2)S1`, 284 °C; to `CCOC(=O)c1ccc(-c2ccccc2)cc1`, 49 °C.
To `CN(C(=O)CN(CCO)CC(=O)N(C)C(C)(C)Cc1ccccc1)C(C)(C)Cc1ccccc1` belongs 104 °C; to `O=C(Cc1ccccc1)OC1Cc2ccccc21` (stereo not given), 42 °C.

What is called melting point is the temperature, or range, at which the solid turns liquid.
